# Data from publication PMC9463526 (Journal of Pharmaceutical Analysis, 2022).
# Like-named read-outs stand apart in the source and are kept apart here.
# What was measured:
# [1] = cited from earlier work
# [2] = Equilibrium dialysis, fraction unbound in plasma; format: in vitro ADME, human; settings: pH 7.4, 16 h equilibrium dialysis
# Method: (§1) Equilibrium dialysis was employed to measure the fraction unbound of analytes in plasma, brain, and brain tumor tissue homogenates using 96-well DispoEquilibrium Dialyzer plates with a 10 kDa cut-off regenerated cellulose membrane. Dialysis was performed using 180 μL of human plasma or tissue homogenate against an equal volume of PBS (pH 7.4) in a dual-plate rotator (Harvard Apparatus, Holliston, MA, USA). Equilibrium time was initially optimized by analyzing samples after 2, 4, 6, 8, 16, and 24 h of dialysis at concentrations of 20 and 200 nM in human plasma and brain homogenate. The dialysates were collected and processed as described in Sections 2.3.2 and 2.3.3. The recovery of analytes was calculated as the ratio of analyte concentration after dialysis (sum of concentrations found in PBS and matrix fractions) to the total concentration to ensure the reliability and reproducibility of the assay. The experiments were repeated at least three times, and each sample in triplicate and average fraction unbound values were determined.
# (§2) The fraction unbound in plasma (fu, plasma) and tissue homogenate (fu, hom) was evaluated as the analyte concentration ratio of post-dialysis PBS (cu) to post-dialysis plasma (cp, Eq. (1)) or homogenate (chom, Eq. (2)).(1) fu,plasma =cu/cp (2) fu,hom =cu/chom
# (§3) Unbound drug levels in the actual plasma and brain tumor tissue were measured using dialysis for 16 h to reach equilibrium. The mean of fraction unbound values determined in five patient samples was calculated.
# [3] = Equilibrium dialysis, fraction unbound in patient brain tumor tissue; format: in vitro ADME; settings: human, five patients, 16 h equilibrium dialysis
# Method: as §1, §2
# (§4) The fraction unbound in the actual tissue (fu, tissue) was obtained by incorporating the unbound fraction in the tissue homogenate (fu, hom) and the dilution factor (Df) into Eq. (3).(3) fu,tissue = fu,hom/[Df - (Df - 1)fu,hom]
# as §3
# The validated bioanalytical method was employed to investigate analytes pharmacokinetics in the plasma, brain tumor, and CSF in GBM patients (ClinicalTrials.gov identifier: NCT04391595). The protocol was reviewed and approved by the Institutional Review Board of the Barrow Neurological Institute, St. Joseph's Hospital and Medical Center (Phoenix, AZ, USA). All patients enrolled in the trial provided written informed consent. […] Blood, CSF, and GBM tissue (including gadolinium-contrast enhancing and non-enhancing regions) samples were obtained intra-operatively from each patient on the […] on the planned operation day. Blood was centrifuged at 4 °C and 3,000 r/min for 10 min; plasma was subsequently collected. Brain tumors were resected 7–9 h after the last dose was administered. Once resected, the tissue samples were rinsed with PBS, paper dried, and freshly frozen in liquid nitrogen. The samples were then stored at −80 °C in a freezer for later analysis.
# [4] = rat; cited from earlier work
# [5] = Equilibrium dialysis, fraction unbound in brain homogenate; format: in vitro ADME, human; settings: pH 7.4; human brain homogenate spiked at 20 and 200 nM; 16 h equilibrium dialysis; read-out: Fraction unbound (fu), Brain
# Method: as §1, §2, §4
# [6] = mouse; cited from earlier work
# [7] = set-up: method as in investigational brochures; settings: ref investigational brochures; cited from earlier work
# [8] = Analyte stability in brain homogenate; format: physicochemical, human; settings: for Freeze-thaw stability, Accuracy / Freeze-thaw stability, Difference: 3 cycles; for Freeze-thaw stability, Difference / Benchtop stability, Difference / Processed sample stability, Difference / Autosampler stability (5 °C), Difference / Long-term stability (−20 °C), Difference: vs freshly processed QC; for Benchtop stability, Accuracy / Benchtop stability, Difference: 6 h; for Processed sample stability, Accuracy / Processed sample stability, Difference: 22 h; for Autosampler stability (5 °C), Accuracy / Autosampler stability (5 °C), Difference: 96 h; for Long-term stability (−20 °C), Difference: 39 days
# Method: The stability of the analytes was studied under various storage and processing conditions. […] Short- and long-term stability studies of all analytes were conducted in human blank plasma and brain homogenate under several storage conditions. Analyte stability in biological matrices was analyzed using freshly prepared calibration standards and QC samples. The percentage difference between the stability and freshly processed QC was also assessed. Re-injection reproducibility was evaluated within the sample stability period in the autosampler. Analytes were considered stable if the accuracy at each level was ±15.0% of the nominal value. Additionally, the difference from corresponding comparison QC samples must be within ±15.0%.
# [9] = cited from earlier work; remark: listed apart in the source
smiles,measurement,setting,value
CCN1CCN(Cc2ccc(Nc3ncc(F)c(-c4cc(F)c5nc(C)n(C(C)C)c5c4)n3)nc2)CC1 [Abemaciclib],"fu, plasma (previously published)",[1],0.027
same,fraction unbound at 16 h,"[2]; human, plasma of five GBM patients, read-out: Fraction unbound (fu), Plasma (patients)",0.026
same,fraction unbound at 16 h,"[2]; pooled human plasma spiked at 20 and 200 nM, read-out: Fraction unbound (fu), Plasma (pooled)",0.026
same,fraction unbound at 16 h,"[3]; pH 7.4, gadolinium contrast enhancing GBM region, read-out: Fraction unbound (fu), GBM (E)",0.014
same,fraction unbound at 16 h,"[3]; pH 7.4, gadolinium contrast non-enhancing GBM region, read-out: Fraction unbound (fu), GBM (NE)",0.011
same,"fu, brain",[4],0.0043
same,fraction unbound at 16 h,[5],0.013
same,"fu, brain",[6],0.0079
same,pKa (strongest basic),[7],7.95
same,"Freeze-thaw stability, Accuracy",[8]; HQC 400.0 nM,106.8%
same,"Freeze-thaw stability, Difference",[8]; HQC 400.0 nM,−3.2%
same,"Freeze-thaw stability, Accuracy",[8]; LQC 0.6 nM,104.4%
same,"Freeze-thaw stability, Difference",[8]; LQC 0.6 nM,−5.7%
same,"Benchtop stability, Accuracy",[8]; HQC 400.0 nM,97.3%
same,"Benchtop stability, Difference",[8]; HQC 400.0 nM,−3.7%
same,"Benchtop stability, Accuracy",[8]; LQC 0.6 nM,108.3%
same,"Benchtop stability, Difference",[8]; LQC 0.6 nM,6.7%
same,"Processed sample stability, Accuracy",[8]; HQC 400.0 nM,99.6%
same,"Processed sample stability, Difference",[8]; HQC 400.0 nM,−1.4%
same,"Processed sample stability, Accuracy",[8]; LQC 0.6 nM,104.5%
same,"Processed sample stability, Difference",[8]; LQC 0.6 nM,3.0%
same,"Autosampler stability (5 °C), Accuracy",[8]; HQC 400.0 nM,102.8%
same,"Autosampler stability (5 °C), Difference",[8]; HQC 400.0 nM,3.3%
same,"Autosampler stability (5 °C), Accuracy",[8]; LQC 0.6 nM,108.3%
same,"Autosampler stability (5 °C), Difference",[8]; LQC 0.6 nM,13.8%
same,"Long-term stability (−20 °C), Difference",[8]; HQC 400.0 nM,−1.5%
same,"Long-term stability (−20 °C), Difference",[8]; LQC 0.6 nM,−6.9%
same,"Distribution (LogD, pH7.4), experimentally measured (value in parenthesis)",[9]; pH 7.4,2.70
same,"Lipophilicity, experimentally measured (value in parenthesis)",[9]; ref [12],3.36
